Source: PMC5605198, “MELK is not necessary for the proliferation of basal-like breast cancer cells” (eLife, 2017)
Like-named read-outs stand apart in the source and are kept apart here.

What was measured:
TrkA = TrkA (Homo sapiens, UniProt P04629); assay: ICKP radiometric kinase assay; assay type: biochemical; details: read-out: % AR (% kinase activity remaining)
DYRK1A = DYRK1A (Homo sapiens, UniProt Q13627); assay: ICKP radiometric kinase assay; assay type: biochemical; details: read-out: % AR (% kinase activity remaining)
MST2 = MST2 (Homo sapiens, UniProt Q13188); assay: ICKP radiometric kinase assay; assay type: biochemical; details: read-out: % AR (% kinase activity remaining)
PRAK = PRAK (Homo sapiens, UniProt Q8IW41); assay: ICKP radiometric kinase assay; assay type: biochemical; details: read-out: % AR (% kinase activity remaining)
CK1 gamma 2 = CK1 gamma 2 (Homo sapiens, UniProt P78368); assay: ICKP radiometric kinase assay; assay type: biochemical; details: read-out: % AR (% kinase activity remaining)
PKA = PKA (Homo sapiens, UniProt P17612); assay: ICKP radiometric kinase assay; assay type: biochemical; details: read-out: % AR (% kinase activity remaining)
LKB1 = LKB1 (Homo sapiens, UniProt Q15831); assay: ICKP radiometric kinase assay; assay type: biochemical; details: read-out: % AR (% kinase activity remaining)
EPH-A4 = EPH-A4 (Homo sapiens, UniProt P54764); assay: ICKP radiometric kinase assay; assay type: biochemical; details: read-out: % AR (% kinase activity remaining)
MST3 = MST3 (Homo sapiens, UniProt Q9Y6E0); assay: ICKP radiometric kinase assay; assay type: biochemical; details: read-out: % AR (% kinase activity remaining)
GCK = GCK (Homo sapiens, UniProt Q12851); assay: ICKP radiometric kinase assay; assay type: biochemical; details: read-out: % AR (% kinase activity remaining)
TSSK1 = TSSK1 (Homo sapiens, UniProt Q9BXA7); assay: ICKP radiometric kinase assay; assay type: biochemical; details: read-out: % AR (% kinase activity remaining)
CHK2 = CHK2 (Homo sapiens, UniProt O96017); assay: ICKP radiometric kinase assay; assay type: biochemical; details: read-out: % AR (% kinase activity remaining)
JNK2 = JNK2 (Homo sapiens, UniProt P45984); assay: ICKP radiometric kinase assay; assay type: biochemical; details: read-out: % AR (% kinase activity remaining)
IKK beta = IKK beta (Homo sapiens, UniProt O14920); assay: ICKP radiometric kinase assay; assay type: biochemical; details: read-out: % AR (% kinase activity remaining)
IR = IR (Homo sapiens, UniProt P06213); assay: ICKP radiometric kinase assay; assay type: biochemical; details: read-out: % AR (% kinase activity remaining)
MELK = MELK (Homo sapiens, UniProt Q14680); details: ref Chung et al., 2012; cited from earlier work
MEKK1 = MEKK1 (Homo sapiens, UniProt Q13233); assay: ICKP radiometric kinase assay; assay type: biochemical; details: read-out: % AR (% kinase activity remaining)
SRPK1 = SRPK1 (Homo sapiens, UniProt Q96SB4); assay: ICKP radiometric kinase assay; assay type: biochemical; details: read-out: % AR (% kinase activity remaining)
ULK1 = ULK1 (Homo sapiens, UniProt O75385); assay: ICKP radiometric kinase assay; assay type: biochemical; details: read-out: % AR (% kinase activity remaining)
CHK1 = CHK1 (Homo sapiens, UniProt O14757); assay: ICKP radiometric kinase assay; assay type: biochemical; details: read-out: % AR (% kinase activity remaining)
p38 beta = p38 beta (Homo sapiens, UniProt Q15759); assay: ICKP radiometric kinase assay; assay type: biochemical; details: read-out: % AR (% kinase activity remaining)
JAK2 = JAK2 (Homo sapiens, UniProt O60674); assay: ICKP radiometric kinase assay; assay type: biochemical; details: read-out: % AR (% kinase activity remaining)
[1] = system: MDA-MB-468 (second source); assay: Cell proliferation assay (CellTiter-Glo); details: Homo sapiens, MDA-MB-468, 168 h, read-out: 7-day antiproliferative IC50
RSK2 = RSK2 (Homo sapiens, UniProt P51812); assay: ICKP radiometric kinase assay; assay type: biochemical; details: read-out: % AR (% kinase activity remaining)
IGF-1R = IGF-1R (Homo sapiens, UniProt P08069); assay: ICKP radiometric kinase assay; assay type: biochemical; details: read-out: % AR (% kinase activity remaining)
IRAK4 = IRAK4 (Homo sapiens, UniProt Q9NWZ3); assay: ICKP radiometric kinase assay; assay type: biochemical; details: read-out: % AR (% kinase activity remaining)
TBK1 = TBK1 (Homo sapiens, UniProt Q9UHD2); assay: ICKP radiometric kinase assay; assay type: biochemical; details: read-out: % AR (% kinase activity remaining)
RSK1 = RSK1 (Homo sapiens, UniProt Q15418); assay: ICKP radiometric kinase assay; assay type: biochemical; details: read-out: % AR (% kinase activity remaining)
TAO1 = TAO1 (Homo sapiens, UniProt Q7L7X3); assay: ICKP radiometric kinase assay; assay type: biochemical; details: read-out: % AR (% kinase activity remaining)
JNK3 = JNK3 (Homo sapiens, UniProt P53779); assay: ICKP radiometric kinase assay; assay type: biochemical; details: read-out: % AR (% kinase activity remaining)
T-47D = assay: Cell proliferation assay (CellTiter-Glo); details: Homo sapiens, T47D
CLK2 = CLK2 (Homo sapiens, UniProt P49760); assay: ICKP radiometric kinase assay; assay type: biochemical; details: read-out: % AR (% kinase activity remaining)
ERK5 = ERK5 (Homo sapiens, UniProt Q13164); assay: ICKP radiometric kinase assay; assay type: biochemical; details: read-out: % AR (% kinase activity remaining)
PIK3CA = PIK3CA (Homo sapiens, UniProt P42336); assay: Adapta kinase assay; details: Adapta assay at [ATP]=apparent Km; read-out: Biochemical IC50 PIK3CA
TESK1 = TESK1 (Homo sapiens, UniProt Q15569); assay: ICKP radiometric kinase assay; assay type: biochemical; details: read-out: % AR (% kinase activity remaining)
PAK2 = PAK2 (Homo sapiens, UniProt Q13177); assay: ICKP radiometric kinase assay; assay type: biochemical; details: read-out: % AR (% kinase activity remaining)
BRK = BRK (Homo sapiens, UniProt Q13882); assay: ICKP radiometric kinase assay; assay type: biochemical; details: read-out: % AR (% kinase activity remaining)
MARK1 = MARK1 (Homo sapiens, UniProt Q9P0L2); assay: ICKP radiometric kinase assay; assay type: biochemical; details: read-out: % AR (% kinase activity remaining)
[2] = system: select off-target kinases; assay: Off-target kinase inhibition (Z’-LYTE/Adapta), comparison; assay type: biochemical; details: from Table 1 IC50 values
[3] = 72 h, read-out: 3-day antiproliferative IC50
[4] = 168 h, read-out: 7-day antiproliferative IC50

TBK1, sequence (Q9UHD2 whole entry): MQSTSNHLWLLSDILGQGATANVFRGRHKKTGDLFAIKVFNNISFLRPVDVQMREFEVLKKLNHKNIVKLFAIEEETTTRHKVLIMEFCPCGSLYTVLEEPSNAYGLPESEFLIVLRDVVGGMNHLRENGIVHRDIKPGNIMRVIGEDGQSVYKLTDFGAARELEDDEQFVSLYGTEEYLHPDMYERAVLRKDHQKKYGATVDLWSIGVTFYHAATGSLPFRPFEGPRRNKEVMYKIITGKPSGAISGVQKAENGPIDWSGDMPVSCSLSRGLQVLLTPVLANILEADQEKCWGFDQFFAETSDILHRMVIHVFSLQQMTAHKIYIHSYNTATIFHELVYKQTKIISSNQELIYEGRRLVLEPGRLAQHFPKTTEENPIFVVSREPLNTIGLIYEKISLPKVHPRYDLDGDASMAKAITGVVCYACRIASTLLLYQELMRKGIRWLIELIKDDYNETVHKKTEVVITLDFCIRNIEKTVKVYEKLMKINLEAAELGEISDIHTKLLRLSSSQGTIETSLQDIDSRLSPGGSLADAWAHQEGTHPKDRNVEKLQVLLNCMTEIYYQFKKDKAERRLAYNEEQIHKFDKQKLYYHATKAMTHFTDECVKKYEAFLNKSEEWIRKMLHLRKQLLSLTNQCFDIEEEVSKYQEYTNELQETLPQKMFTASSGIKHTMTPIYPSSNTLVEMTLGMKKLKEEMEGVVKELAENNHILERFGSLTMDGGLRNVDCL
IKK beta, sequence (O14920 whole entry): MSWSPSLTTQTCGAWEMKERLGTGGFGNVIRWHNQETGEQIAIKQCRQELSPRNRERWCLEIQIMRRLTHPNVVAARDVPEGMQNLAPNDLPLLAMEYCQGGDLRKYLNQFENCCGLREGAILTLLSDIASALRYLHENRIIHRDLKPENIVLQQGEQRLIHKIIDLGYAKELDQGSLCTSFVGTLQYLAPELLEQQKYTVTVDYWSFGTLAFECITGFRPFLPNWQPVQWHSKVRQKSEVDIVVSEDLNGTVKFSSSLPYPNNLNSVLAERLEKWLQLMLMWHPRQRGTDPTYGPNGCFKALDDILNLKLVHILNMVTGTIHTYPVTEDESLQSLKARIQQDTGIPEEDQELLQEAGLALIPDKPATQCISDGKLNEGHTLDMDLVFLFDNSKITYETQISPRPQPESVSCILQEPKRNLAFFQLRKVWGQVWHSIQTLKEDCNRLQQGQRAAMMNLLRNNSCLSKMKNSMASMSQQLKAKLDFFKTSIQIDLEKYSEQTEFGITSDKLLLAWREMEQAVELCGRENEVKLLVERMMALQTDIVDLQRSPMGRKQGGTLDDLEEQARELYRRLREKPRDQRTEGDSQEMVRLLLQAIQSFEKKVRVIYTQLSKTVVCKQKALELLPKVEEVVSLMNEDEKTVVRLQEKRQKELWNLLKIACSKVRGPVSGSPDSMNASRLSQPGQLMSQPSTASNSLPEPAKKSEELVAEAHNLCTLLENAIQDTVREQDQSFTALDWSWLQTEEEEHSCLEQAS
BRK, sequence (Q13882 whole entry): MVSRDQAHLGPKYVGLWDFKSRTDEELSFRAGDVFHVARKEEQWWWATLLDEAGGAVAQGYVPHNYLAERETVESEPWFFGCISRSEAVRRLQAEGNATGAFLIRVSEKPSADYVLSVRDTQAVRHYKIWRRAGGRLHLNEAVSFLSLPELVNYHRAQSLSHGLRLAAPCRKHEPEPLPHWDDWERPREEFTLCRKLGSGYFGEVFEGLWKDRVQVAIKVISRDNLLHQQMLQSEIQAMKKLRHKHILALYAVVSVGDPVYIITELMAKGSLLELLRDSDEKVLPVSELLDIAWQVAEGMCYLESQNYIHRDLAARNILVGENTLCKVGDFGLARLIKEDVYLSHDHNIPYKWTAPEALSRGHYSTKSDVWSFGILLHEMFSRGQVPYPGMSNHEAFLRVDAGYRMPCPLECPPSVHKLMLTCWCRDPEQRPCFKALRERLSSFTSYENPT
JNK3, sequence (P53779 whole entry): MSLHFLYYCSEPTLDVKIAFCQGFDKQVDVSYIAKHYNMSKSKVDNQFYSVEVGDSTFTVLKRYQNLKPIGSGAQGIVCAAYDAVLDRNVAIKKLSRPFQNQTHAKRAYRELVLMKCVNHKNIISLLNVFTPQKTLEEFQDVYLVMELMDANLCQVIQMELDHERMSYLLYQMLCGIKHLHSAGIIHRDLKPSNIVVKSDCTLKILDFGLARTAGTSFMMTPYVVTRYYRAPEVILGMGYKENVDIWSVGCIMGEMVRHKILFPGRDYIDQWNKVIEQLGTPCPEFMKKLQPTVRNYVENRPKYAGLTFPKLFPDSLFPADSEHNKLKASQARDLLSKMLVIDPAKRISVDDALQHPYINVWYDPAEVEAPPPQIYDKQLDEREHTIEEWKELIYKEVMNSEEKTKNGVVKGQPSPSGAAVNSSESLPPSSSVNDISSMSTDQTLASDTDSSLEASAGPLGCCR
IRAK4, sequence (Q9NWZ3 whole entry): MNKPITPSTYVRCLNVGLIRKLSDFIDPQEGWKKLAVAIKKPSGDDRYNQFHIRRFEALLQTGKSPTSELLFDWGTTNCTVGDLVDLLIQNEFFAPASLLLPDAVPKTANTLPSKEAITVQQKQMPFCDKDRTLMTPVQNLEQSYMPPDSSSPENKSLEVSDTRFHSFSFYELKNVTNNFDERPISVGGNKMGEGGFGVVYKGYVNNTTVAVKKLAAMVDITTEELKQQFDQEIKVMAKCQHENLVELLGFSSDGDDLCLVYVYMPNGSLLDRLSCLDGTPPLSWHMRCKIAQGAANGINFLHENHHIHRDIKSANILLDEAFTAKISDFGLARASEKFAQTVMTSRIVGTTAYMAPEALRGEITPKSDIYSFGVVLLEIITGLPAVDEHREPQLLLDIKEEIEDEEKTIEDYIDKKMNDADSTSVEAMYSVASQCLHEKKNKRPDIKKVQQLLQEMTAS
IR, sequence (P06213 28-1382): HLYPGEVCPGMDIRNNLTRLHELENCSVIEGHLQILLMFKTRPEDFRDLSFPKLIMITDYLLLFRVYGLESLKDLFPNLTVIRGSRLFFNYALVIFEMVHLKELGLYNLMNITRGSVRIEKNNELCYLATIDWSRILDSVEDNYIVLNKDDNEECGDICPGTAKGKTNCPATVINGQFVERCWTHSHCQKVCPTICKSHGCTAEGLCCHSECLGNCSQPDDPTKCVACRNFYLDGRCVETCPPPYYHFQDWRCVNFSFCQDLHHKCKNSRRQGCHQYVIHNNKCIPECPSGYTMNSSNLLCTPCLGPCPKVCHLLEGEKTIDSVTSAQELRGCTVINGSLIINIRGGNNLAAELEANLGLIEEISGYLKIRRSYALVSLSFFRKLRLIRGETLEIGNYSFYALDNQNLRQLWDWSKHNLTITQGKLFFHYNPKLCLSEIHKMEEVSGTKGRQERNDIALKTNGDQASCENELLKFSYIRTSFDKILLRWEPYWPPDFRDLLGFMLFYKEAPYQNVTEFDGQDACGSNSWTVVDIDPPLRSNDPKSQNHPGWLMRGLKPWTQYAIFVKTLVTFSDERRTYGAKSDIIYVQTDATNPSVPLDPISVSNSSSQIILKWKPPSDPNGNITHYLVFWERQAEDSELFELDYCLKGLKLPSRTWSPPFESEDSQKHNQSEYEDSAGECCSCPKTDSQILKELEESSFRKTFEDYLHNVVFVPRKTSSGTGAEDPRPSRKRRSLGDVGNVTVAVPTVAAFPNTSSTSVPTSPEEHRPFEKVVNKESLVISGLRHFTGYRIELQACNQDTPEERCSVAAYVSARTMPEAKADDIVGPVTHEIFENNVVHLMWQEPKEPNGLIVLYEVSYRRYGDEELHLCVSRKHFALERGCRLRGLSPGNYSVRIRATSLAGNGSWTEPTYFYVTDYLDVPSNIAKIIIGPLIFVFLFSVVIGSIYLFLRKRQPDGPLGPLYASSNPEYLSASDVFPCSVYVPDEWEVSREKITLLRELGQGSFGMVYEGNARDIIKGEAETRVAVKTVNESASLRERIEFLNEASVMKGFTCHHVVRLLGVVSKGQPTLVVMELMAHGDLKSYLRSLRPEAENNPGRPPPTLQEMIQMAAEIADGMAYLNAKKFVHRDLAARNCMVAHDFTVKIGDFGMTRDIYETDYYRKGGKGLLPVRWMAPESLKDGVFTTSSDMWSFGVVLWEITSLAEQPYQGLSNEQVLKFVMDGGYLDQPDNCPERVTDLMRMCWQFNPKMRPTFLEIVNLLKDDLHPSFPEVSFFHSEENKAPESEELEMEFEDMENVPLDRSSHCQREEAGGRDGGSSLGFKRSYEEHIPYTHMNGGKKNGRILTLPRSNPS
PRAK, sequence (Q8IW41 whole entry): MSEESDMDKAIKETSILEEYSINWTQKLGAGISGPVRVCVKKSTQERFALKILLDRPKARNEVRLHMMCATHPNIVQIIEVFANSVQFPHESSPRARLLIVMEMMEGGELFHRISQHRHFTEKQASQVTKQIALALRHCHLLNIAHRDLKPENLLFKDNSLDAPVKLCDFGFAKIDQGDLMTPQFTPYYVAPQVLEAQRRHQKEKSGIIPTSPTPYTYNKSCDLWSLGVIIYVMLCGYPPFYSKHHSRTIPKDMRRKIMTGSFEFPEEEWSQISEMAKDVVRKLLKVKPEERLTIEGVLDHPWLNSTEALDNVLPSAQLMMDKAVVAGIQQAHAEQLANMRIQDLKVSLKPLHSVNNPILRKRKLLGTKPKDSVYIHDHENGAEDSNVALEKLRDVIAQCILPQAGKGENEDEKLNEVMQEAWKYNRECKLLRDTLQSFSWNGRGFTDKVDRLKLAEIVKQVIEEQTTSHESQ
p38 beta, sequence (Q15759 whole entry): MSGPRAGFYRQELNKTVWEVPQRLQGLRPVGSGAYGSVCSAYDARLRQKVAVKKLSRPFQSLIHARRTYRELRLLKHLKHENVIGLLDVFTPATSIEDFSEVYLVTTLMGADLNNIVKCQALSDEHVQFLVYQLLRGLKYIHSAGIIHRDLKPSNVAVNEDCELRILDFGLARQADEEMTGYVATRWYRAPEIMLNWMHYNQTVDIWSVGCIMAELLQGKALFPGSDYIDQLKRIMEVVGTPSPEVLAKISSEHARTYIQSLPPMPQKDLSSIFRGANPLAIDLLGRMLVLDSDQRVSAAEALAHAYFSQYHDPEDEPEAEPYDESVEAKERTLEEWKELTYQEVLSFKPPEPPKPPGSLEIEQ

SMILES	remaining activity at 1 µM (TrkA)	remaining activity at 1 µM (DYRK1A)	remaining activity at 1 µM (MST2)	remaining activity at 1 µM (PRAK)	remaining activity at 1 µM (CK1 gamma 2)	remaining activity at 1 µM (PKA)	remaining activity at 1 µM (LKB1)	remaining activity at 1 µM (EPH-A4)	remaining activity at 1 µM (MST3)	remaining activity at 1 µM (GCK)	remaining activity at 1 µM (TSSK1)	remaining activity at 1 µM (CHK2)	remaining activity at 1 µM (JNK2)	remaining activity at 1 µM (IKK beta)	remaining activity at 1 µM (IR)	remaining activity at 1 µM (MEKK1)	remaining activity at 1 µM (SRPK1)	remaining activity at 1 µM (ULK1)	remaining activity at 1 µM (CHK1)	remaining activity at 1 µM (p38 beta)	also measured
CC(=O)c1cnc2ccc(-c3cc(Cl)c(O)c(Cl)c3)nc2c1N[C@H]1CC[C@H](CN(C)C)CC1 [OTSSP167]	1%	1%	7%	16%	10%	12%	83%	1%	5%	0%	1%	1%	16%	41%	2%	96%	10%	32%	11%	6%	activity against MELK (MELK): subnanomolar; remaining activity at 1 µM (JAK2): 3%; IC50 [1]: 33 nM; remaining activity at 1 µM (RSK2): 1%; remaining activity at 1 µM (IGF-1R): 4%; remaining activity at 1 µM (IRAK4): 7%; remaining activity at 1 µM (TBK1): 6%; remaining activity at 1 µM (RSK1): 3%; remaining activity at 1 µM (TAO1): 3%; remaining activity at 1 µM (JNK3): 13%; IC50 (T-47D; [3]): 106 nM; IC50 (T-47D; [4]): 9 nM; remaining activity at 1 µM (CLK2): 0%; remaining activity at 1 µM (ERK5): 4%; IC50 (PIK3CA): 66.5 nM; remaining activity at 1 µM (TESK1): 51%; remaining activity at 1 µM (PAK2): 74%; remaining activity at 1 µM (BRK): 8%; remaining activity at 1 µM (MARK1): 31%
CN(C)C[C@H]1CC[C@H](N2C(=O)NCc3cnc4ccc(-c5cc(Cl)c(O)c(Cl)c5)cc4c32)CC1 [HTH-01-091, 9-(3,5-dichloro-4-hydroxyphenyl)-1-(trans-4-((dimethylamino)methyl)cyclohexyl)-3,4-dihydropyrimido[5,4 c]quinolin-2(1H)-one]	53%	23%	45%	78%	80%	112%	100%	63%	93%	16%	68%	34%	100%	104%	100%	111%	94%	93%	86%	85%	reduced inhibition of the select off-target kinases compared with JW-7-25-1 [2]: 20- to 140 fold; remaining activity at 1 µM (JAK2): 39%; IC50 [1]: 10700 nM; remaining activity at 1 µM (RSK2): 62%; remaining activity at 1 µM (IGF-1R): 92%; remaining activity at 1 µM (IRAK4): 85%; remaining activity at 1 µM (TBK1): 88%; remaining activity at 1 µM (RSK1): 48%; remaining activity at 1 µM (TAO1): 18%; remaining activity at 1 µM (JNK3): 101%; IC50 (T-47D; [3]): 3870 nM; IC50 (T-47D; [4]): 780 nM; remaining activity at 1 µM (CLK2): 11%; remaining activity at 1 µM (ERK5): 70%; IC50 (PIK3CA): 962 nM; remaining activity at 1 µM (TESK1): 95%; remaining activity at 1 µM (PAK2): 88%; remaining activity at 1 µM (BRK): 96%; remaining activity at 1 µM (MARK1): 97%
